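96-well plates; 48 h exposure; 5 concentrations. Endpoints by linear interpolation between flanking doses. Not reached: highest tested concentration assigned. At the GI50, growth is halved.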 Activity calls are given as the source filed them. Cut-off read from the data, not from the text of the source: active = GI50 up to about 1.1 µM and inactive = higher.
Key:
Experiment in all cases: growth of human tumour cells (NCI), 48 h
[1] = system: 786-0
[2] = system: A498
[3] = system: ACHN
[4] = system: CAKI-1
[5] = system: CCRF-CEM
[6] = system: COLO 205
[7] = system: DLD-1
[8] = system: DMS-114
[9] = system: DMS-273
[10] = system: EKVX
[11] = system: HCT-15
[12] = system: HL-60
[13] = system: HOP-18
[14] = system: HOP-62
[15] = system: HOP-92
[16] = system: HT-29
[17] = system: IGROV-1
[18] = system: K562
[19] = system: KM-20L2
[20] = system: KM12
[21] = system: LOX IMVI
[22] = system: LXFL 529
[23] = system: M14
[24] = system: M19-MEL
[25] = system: MOLT-4
[26] = system: Malme-3M
[27] = system: NCI-H226
[28] = system: NCI-H23
[29] = system: NCI-H460
[30] = system: NCI-H522
[31] = system: OVCAR-3
[32] = system: OVCAR-4
[33] = system: OVCAR-5
[34] = system: OVCAR-8
[35] = system: RPMI-8226
[36] = system: RXF 393
[37] = system: RXF 631
[38] = system: SF-268
[39] = system: SF-295
[40] = system: SF-539
[41] = system: SK-MEL-28
[42] = system: SK-MEL-2
[43] = system: SK-MEL-5
[44] = system: SK-OV-3
[45] = system: SN12C
[46] = system: SNB-19
[47] = system: SNB-75
[48] = system: SNB-78
[49] = system: SR
[50] = system: SW-620
[51] = system: TK-10
[52] = system: U-251
[53] = system: UACC-257
[54] = system: UACC-62
[55] = system: UO-31
[56] = system: XF498

In the case of `O=C1NC2OCC(O)C(O1)C2O` (stereo unspecified), the GI50 [1] was > 100 µM (inactive), the GI50 [2] was > 100 µM (inactive) and the GI50 [3] was > 100 µM (inactive). For the same compound, the GI50 [4] was > 100 µM (inactive), the GI50 [5] was > 100 µM (inactive) and the GI50 [6] was > 100 µM (inactive). The GI50 [7] was > 100 µM (inactive), the GI50 [8] was > 100 µM (inactive) and the GI50 [9] was > 100 µM (inactive). For the same compound, the GI50 [10] was > 100 µM (inactive), the GI50 [11] was greater than 100 µM and the GI50 [12] was > 100 µM (inactive). The GI50 [13] was > 100 µM (inactive), the GI50 [14] was > 100 µM (inactive) and the GI50 [15] was > 100 µM (inactive). The GI50 [16] was > 100 µM (inactive), the GI50 [17] was > 100 µM (inactive) and the GI50 [18] was > 100 µM (inactive). The GI50 [19] was > 100 µM (inactive), the GI50 [20] was > 100 µM (inactive) and the GI50 [21] was > 100 µM (inactive). For the same compound, the GI50 [22] was > 100 µM (inactive), the GI50 [23] was > 100 µM (inactive) and the GI50 [24] was > 100 µM (inactive). For the same compound, the GI50 [25] was > 100 µM (inactive), the GI50 [26] was > 100 µM (inactive) and the GI50 [27] was > 100 µM (inactive). The GI50 [28] was > 100 µM (inactive), the GI50 [29] was > 100 µM (inactive) and the GI50 [30] was > 100 µM (inactive). The GI50 [31] was > 100 µM (inactive), the GI50 [32] was > 100 µM (inactive) and the GI50 [33] was > 100 µM (inactive). For the same compound, the GI50 [34] was > 100 µM (inactive), the GI50 [35] was > 100 µM (inactive) and the GI50 [36] was > 100 µM (inactive). The GI50 [37] was > 100 µM (inactive), the GI50 [38] was > 100 µM (inactive) and the GI50 [39] was > 100 µM (inactive). For the same compound, the GI50 [40] was > 100 µM (inactive), the GI50 [41] was > 100 µM (inactive) and the GI50 [42] was > 100 µM (inactive). The GI50 [43] was > 100 µM (inactive), the GI50 [44] was > 100 µM (inactive) and the GI50 [45] was > 100 µM (inactive). For the same compound, the GI50 [46] was > 100 µM (inactive), the GI50 [47] was > 100 µM (inactive) and the GI50 [48] was > 100 µM (inactive). For the same compound, the GI50 [49] was > 100 µM (inactive), the GI50 [50] was > 100 µM (inactive) and the GI50 [51] was > 100 µM (inactive). For the same compound, the GI50 [52] was > 100 µM (inactive), the GI50 [53] was > 100 µM (inactive) and the GI50 [54] was > 100 µM (inactive). For the same compound, the GI50 [55] was > 100 µM (inactive) and the GI50 [56] was > 100 µM (inactive).
